This note sets out measurements from patent US20250084091A1, “INHIBITORS OF SARS-COV-2” (The Texas A&M University System, priority 2021, published 2025).

pEC50, pIC50: −log10 of the molar value. Where two headings read alike, the source gives them in different places. Where only a bound is given, the exact number is not on record here.

Data set [1] concerns the target SARS-CoV-2 main protease (Mpro) (Severe acute respiratory syndrome coronavirus 2, UniProt P0DTD1). The data set is described as follows: biochemical.
Data set [2] concerns SARS-CoV-2 (strain USA-WA1/2020). The data set is described as follows: microbe, parasite or virus in culture. The data set is classed as cell-based.
For another data set, the system named is HeLa-ACE2 cells. The data set can be described thus: cells. The data set is classed as cell-based. Conditions: Table 2, total cell count in infected plates.
Data set [3] can be described thus: Uninfected host cell cytotoxicity counter screen. In kind it is cell-based. Conditions: human. In short, it runs like this:
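HeLa-ACE2 cells, uninfected, seeded at 400 cells/well with compounds and held 24 hours at 37° C., 5% CO2. Dead cells stained with Image-iT DEAD green, fixed in 4% paraformaldehyde, DAPI-counterstained and imaged. Data normalized to DMSO and 40 μM puromycin controls; concentration responses in triplicate.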
On the technique in general: The purpose of a counterscreen is to sort out artefacts and off-target activity.

[4] abbreviates: Severe acute respiratory syndrome coronavirus 2, HeLa-ACE2, read-out: CoV-2 HeLa EC50, Table 2, SARS-CoV-2 infected HeLa-ACE2 cells.
Where [5] appears, read: Table 2, uninfected cells, 24 hours, read-out: Uninfected HeLa-ACE2 CC50.
Where [6] appears, read: Severe acute respiratory syndrome coronavirus 2, Table 2, SARS-CoV-2 infected HeLa-ACE2 cells, read-out: CoV-2 HeLa EC50.

With `Cc1cncc(C(=O)N2CC3CCC(C2)N3C(c2cccc(F)c2)c2cccc(F)c2)c1` [AA-625, (8-(bis(3-fluorophenyl)methyl)-3,8-diazabicyclo[3.2.1]octan-3-yl)(5-methylpyridin-3-yl)methanone], the pIC50 was 7.48 in data set [1] (Enzyme IC50, Table 2) and 8.40 in data set [1] (Enzyme IC50, Table 3, select example compounds against mpro). Also, the pEC50 is 7.14 in data set [2] (Severe acute respiratory syndrome coronavirus 2, HeLa, read-out: CoV-2 HeLa EC50, Table 3); 7.14 in data set [2] (setting [4]); 7.07 with HeLa-ACE2 cells. Besides, in data set [3] (setting [5]), the 50% cytotoxic concentration (CC50) at 24 h stood at 26.5 µM.

As for `O=C(c1cncc(Cl)c1)N1CCN(C2c3ccccc3CCc3ccccc32)CC1` [ZS-317, (5-chloro-3-pyridyl)-[4-(2-tricyclo[9.4.0.03,8]pentadeca-1(11),3(8),4,6,12,14-hexaenyl)piperazin-1-yl]methanone], the negative logarithm of the IC50 (pIC50) in data set [1] (Table 2, read-out: Enzyme IC50) was 6.74. Moreover, the pEC50 in data set [2] (setting [6]) was 6.05; in the data set on HeLa-ACE2 cells it was < 5.02. In addition, in data set [3], the CC50 at 24 h is > 39.8 µM.

As to `CC(=O)Nc1cncc(C(=O)N2CCN(C(c3ccccc3)c3ccccc3)CC2)c1` [AA-624, N-(5-(4-benzhydrylpiperazine-1-carbonyl)pyridin-3-yl)acetamide], the pIC50 in data set [1] (Table 2, read-out: Enzyme IC50) is 6.05. Also, the figures for the pEC50 (in data set [2] (setting [6]); with HeLa-ACE2 cells) were 5.58 and < 5.02, respectively. Also, in data set [3], the CC50 at 24 h is > 39.8 µM.

With `O=C1CC(C(=O)N2CCN(C3c4ccccc4CCc4ccccc43)CC2)c2ccccc2N1` (centres unmarked) [ZS-324, 4-[4-(2-tricyclo[9.4.0.03,8]pentadeca-1(11),3(8),4,6,12,14-hexaenyl)piperazine-1-carbonyl]-3,4-dihydro-1H-quinolin-2-one], the negative-log IC50 (pIC50) in data set [1] (Table 2, read-out: Enzyme IC50) is 6.27. The figures for the pEC50 (in data set [2] (setting [6]); in the data set on HeLa-ACE2 cells) were 5.55 and < 5.02, respectively. For the same molecule, the CC50 at 24 h in data set [3] is 21.1 µM.

Take `O=C(c1cncc(Cl)c1)N1CCC(=C(c2ccccc2)c2ccccc2)CC1` [NZ-781, 3-chloro-5-[4-(diphenylmethylidene)piperidine-1-carbonyl]pyridine]: in data set [1] (Table 2, read-out: Enzyme IC50), the pIC50 is 6.96. Also, the figures for the negative-log EC50 (pEC50) (in data set [2] (setting [6]); in the data set on HeLa-ACE2 cells) were 5.98 and < 5.02, respectively. The molecule further returned a cytotoxic concentration (CC50) at 24 h in data set [3] of 35.8 µM.

`CC(=O)Nc1cncc(C(=O)N2CC3CCC(C2)N3C(c2ccccc2)c2ccccc2)c1` [AA-633, N-(5-(8-benzhydryl-3,8-diazabicyclo[3.2.1]octane-3-carbonyl)pyridin-3-yl)acetamide] gave a pIC50 in data set [1] (Enzyme IC50, Table 2) of 6.19. Besides, the negative-log EC50 (pEC50) in data set [2] (setting [4]) is 5.80; with HeLa-ACE2 cells, 5.56. For the same molecule, in data set [3] (setting [5]), the CC50 at 24 h is > 39.8 µM.

As for `O=C(c1cncc2cc[nH]c12)N1CCN(C2c3ccccc3CS(=O)(=O)c3ccccc32)CC1` (centres unmarked) [NZ-808, [4-(5,5-dioxo-6,11-dihydrobenzo[c][1]benzothiepin-11-yl)piperazin-1-yl]-(1H-pyrrolo[3,2-c]pyridin-7-yl)methanone], the negative logarithm of the IC50 (pIC50) in data set [1] (Table 2, read-out: Enzyme IC50) was 7.49; in data set [1] (Table 3, select example compounds against mpro, read-out: Enzyme IC50) it was 8.00. The negative logarithm of the EC50 (pEC50) was 7.60 in data set [2] (Severe acute respiratory syndrome coronavirus 2, HeLa, Table 3, read-out: CoV-2 HeLa EC50); 7.60 in data set [2] (setting [6]); 7.52 with HeLa-ACE2 cells. For the same molecule, the CC50 at 24 h in data set [3] was > 39.8 µM.

On to `O=C(c1cncc2nc[nH]c12)N1CCC(=C2c3ccccc3CS(=O)(=O)c3ccccc32)CC1` [NZ-803, [4-(5,5-dioxo-6H-benzo[c][1]benzothiepin-11-ylidene)-1-piperidyl]-(1H-imidazo[4,5-c]pyridin-7-yl)methanone], for which the negative-log IC50 (pIC50) in data set [1] (Table 2, read-out: Enzyme IC50) is 7.04. Moreover, the values for the negative-log EC50 (pEC50) (in data set [2] (setting [6]); in the data set on HeLa-ACE2 cells) were 6.74 and 6.49, respectively. Also, the half-maximal cytotoxic concentration (CC50) at 24 h in data set [3] is > 39.8 µM.

Regarding `O=C(c1cncc(F)c1)N1CCN(C2c3ccccc3CCc3ccccc32)CC1` [ZS-318, (5-fluoro-3-pyridyl)-[4-(2-tricyclo[9.4.0.03,8]pentadeca-1(11),3(8),4,6,12,14-hexaenyl)piperazin-1-yl]methanone], in data set [1] (Table 2, read-out: Enzyme IC50), the pIC50 is 6.82. The pEC50 was 6.15 in data set [2] (setting [6]) and < 5.02 with HeLa-ACE2 cells. In addition, in data set [3], the CC50 at 24 h was > 39.8 µM.

`Cc1cncc(C(=O)N2CCN(C3c4ccccc4C=Cc4ccccc43)CC2)c1` [NZ-784, (5-methyl-3-pyridyl)-[4-(2-tricyclo[9.4.0.03,8]pentadeca-1(11),3(8),4,6,9,12,14-heptaenyl)piperazin-1-yl]methanone]: the pIC50 in data set [1] (Table 2, read-out: Enzyme IC50) was 7.06. Besides, the pEC50 was 6.44 in data set [2] (setting [6]) and < 5.02 with HeLa-ACE2 cells. This molecule also returned a CC50 at 24 h in data set [3] of 39.4 µM.

In the case of `O=C(c1cncc(Br)c1)N1CCC(=C2c3ccccc3CS(=O)(=O)c3ccccc32)CC1` [NZ-802, (5-bromo-3-pyridyl)-[4-(5,5-dioxo-6H-benzo[c][1]benzothiepin-11-ylidene)-1-piperidyl]methanone], the negative-log IC50 (pIC50) in data set [1] (Table 2, read-out: Enzyme IC50) is 7.17. Besides, the negative-log EC50 (pEC50) in data set [2] (setting [6]) was 7.22; with HeLa-ACE2 cells it was 7.39. In addition, in data set [3], the CC50 at 24 h is > 39.8 µM.

In the case of `NC(=O)c1cncc(C(=O)N2CCN(C3c4ccccc4CCc4ccccc43)CC2)c1` [ZS-347, 5-[4-(2-tricyclo[9.4.0.03,8]pentadeca-1(11),3(8),4,6,12,14-hexaenyl)piperazine-1-carbonyl]pyridine-3-carboxamide], the pIC50 in data set [1] (Table 2, read-out: Enzyme IC50) was 5.77. Also, the negative-log EC50 (pEC50) in data set [2] (setting [6]) was 5.37; with HeLa-ACE2 cells, < 5.02. Moreover, in data set [3], the half-maximal cytotoxic concentration (CC50) at 24 h is > 39.8 µM.

Consider `O=C(c1cc[nH]c(=O)c1)N1CCN(C(c2ccccc2)c2ccccc2)CC1` [NZ-769, 4-[4-(diphenylmethyl)piperazine-1-carbonyl]-1,2-dihydropyridin-2-one], for which the pIC50 in data set [1] (Table 2, read-out: Enzyme IC50) was 4.95. The results for the negative logarithm of the EC50 (pEC50) (in data set [2] (setting [6]); in the data set with HeLa-ACE2 cells) were 5.09 and < 5.02, respectively. Besides, the CC50 at 24 h in data set [3] is > 39.8 µM.

For `O=C(c1cncc(F)c1)N1CCN(C(c2ccccc2)c2cccnc2)CC1` (centres unmarked) [MKP-1192, 1-(5-fluoropyridine-3-carbonyl)-4-[phenyl(pyridin-3-yl)methyl]piperazine], the pIC50 in data set [1] (Table 2, read-out: Enzyme IC50) is 5.71. Moreover, the results for the pEC50 (in data set [2] (setting [6]); in the data set with HeLa-ACE2 cells) were 5.32 and < 5.02, respectively. Moreover, the CC50 at 24 h in data set [3] is > 39.8 µM.

On to `O=C(c1cccnc1)N1CCN(C(c2ccc(F)cc2)c2ccc(F)cc2)CC1` [AA-598, (4-(bis(4-fluorophenyl)methyl)piperazin-1-yl)(yridine-3-yl)methanone], for which the negative-log IC50 (pIC50) in data set [1] (Table 2, read-out: Enzyme IC50) is 5.72. Moreover, the pEC50 (in data set [2] (setting [4]); with HeLa-ACE2 cells) was < 5.02 in each case. In addition, the CC50 at 24 h in data set [3] was > 39.8 µM.

In the case of `O=C(c1cc[nH]c(=O)c1)N1CCN(C2c3ccccc3CCc3ccccc32)CC1` [ZS-320, 4-[4-(2-tricyclo[9.4.0.03,8]pentadeca-1(11),3(8),4,6,12,14-hexaenyl)piperazine-1-carbonyl]-1H-pyridin-2-one], the negative logarithm of the IC50 (pIC50) in data set [1] (Table 2, read-out: Enzyme IC50) was 5.93. Besides, the negative logarithm of the EC50 (pEC50) was 5.60 in data set [2] (setting [6]) and < 5.02 in the data set with HeLa-ACE2 cells. Besides, the CC50 at 24 h in data set [3] is > 39.8 µM.

Regarding `O=C(c1cnccc1Cl)N1CCN(C(c2ccccc2)c2ccccc2)CC1` [AA-605, (4-benzhydrylpiperazin-1-yl)(4-chloropyridin-3-yl)methanone], the pIC50 in data set [1] (Table 2, read-out: Enzyme IC50) is 5.89. In addition, the negative logarithm of the EC50 (pEC50) in data set [2] (setting [6]) was 5.52; in the data set on HeLa-ACE2 cells it was 5.14. The CC50 at 24 h in data set [3] is > 39.8 µM.

For `O=C(c1cncc(Cl)c1)N1CCN(C(c2ccccc2)c2cccnc2)CC1` (centres unmarked) [MKP-1193, 1-(5-chloropyridine-3-carbonyl)-4-[phenyl(pyridin-3-yl)methyl]piperazine], in data set [1] (Table 2, read-out: Enzyme IC50), the pIC50 is 6.35. The figures for the negative-log EC50 (pEC50) (in data set [2] (setting [6]); in the data set with HeLa-ACE2 cells) were 6.09 and < 5.02, respectively. Further, the CC50 at 24 h in data set [3] is > 39.8 µM.

As for `Cc1cncc(C(=O)N2CCC(N(c3ccccc3)c3ccccc3)CC2)c1` [AA-613, (4-(diphenylamino)piperidin-1-yl)(5-methylpyridin-3-yl)methanone], the pIC50 in data set [1] (Table 2, read-out: Enzyme IC50) was 6.09. Further, the negative logarithm of the EC50 (pEC50) (in data set [2] (setting [4]); in the data set on HeLa-ACE2 cells) was < 5.02 each time. Besides, the half-maximal cytotoxic concentration (CC50) at 24 h in data set [3] is > 39.8 µM.

The term pIC50 denotes the negative decadic logarithm of the IC50, by convention in mol/L. A word on the pEC50: it is the EC50 on a negative log10 scale, so that one unit is a factor of ten. A word on the CC50: it is the concentration that lowers cell viability or growth by half.
